The numbers were not newly measured in patent US9842198B2, “Screening method and systems utilizing mass spectral fragmentation patterns” (McMaster University, priority 2012, dated 2017), which cites them from elsewhere.

The series concerns G-protein coupled receptor NK-1. Particulars: natural ligands are tachykinin peptide hormones such as neurokinin A.

Each structure is given as a SMILES string. *1 amine or outer side, *2 acyl side, *3 side chain or, on linkers, in order; H or OH if unused. Where a SMILES comes first, the peptide text is derived from it. Bridges are numbered along the chain shown (N, C = ends). [ ]: non-standard residue; d: D form. The star is where a group is joined. Cinnamoyl(2-(1Z-pentenyl)) = CCC/C=C\c1ccccc1/C=C/C(=O)*; X1 = CN(/C(=C/c1ccc(O)cc1)C(=O)[*:2])[*:1]; aThr = C[C@H](O)[C@H](N)C(=O)O

`CCC/C=C\c1ccccc1/C=C/C(=O)N[C@@H]1C(=O)N(C)/C(=C/c2ccc(O)cc2)C(=O)N[C@@H](CC(C)C)C(=O)N[C@H](Cc2ccccc2)C(=O)N[C@@H]([C@H](C)O)C(=O)N[C@@H](CC(N)=O)C(=O)N[C@@H](CO)C(=O)O[C@@H]1C` [WS-9326A] ({Cinnamoyl(2-(1Z-pentenyl))}-T[X1]L[dF][aThr]NS; ester 1-C): the “antagonist activity at NK-1” value is recorded as “potent antagonist”.
